Values quoted from earlier work as cited in patent US9517268B2, “Process for producing inorganic particulate material” (MERCK PATENT GMBH, priority 2011, dated 2016).
Converted amounts (≈) assume the structure as drawn.

Settings: pH 7

solubility in aqueous solutions: 1 ng/mL (≈ 1.42 nM)
SMILES: CCC(C)n1ncn(-c2ccc(N3CCN(c4ccc(OCC5COC(Cn6cncn6)(c6ccc(Cl)cc6Cl)O5)cc4)CC3)cc2)c1=O (stereo not shown) [Itraconazole]
